Data reported in patent US20230293539A1, “MLL1-WDR5 PROTEIN-PROTEIN INTERACTION INHIBITOR COMPOUNDS AND USES THEREOF” (HUYABIO International, LLC, priority 2022, published 2023).
pIC50: −log10 of the molar value.

Legend:
MV 411 cells = assay: Cell Viability Assay (CellTiter-Glo); assay type: cell-based; settings: Homo sapiens, MV4-11, 72 hours, read-out: IC50 (anti-proliferative activity against leukemia cells)
Description: Cell lines and maintenance: All cell lines (MV 411) used for in vitro and in vivo studies were supplied as part of Wuxi AppTech cell bank. Cell lines were maintained in a medium supplemented with 10% heat inactivated fetal bovine serum at 37° C., in an atmosphere of 5% CO2, in air. The tumor cells were routinely subcultured twice weekly. The cells growing in an exponential growth phase were used for the in vitro cell potency and in vivo efficacy studies.
EXAMPLE 1: Cell Viability Assay: For cell cytotoxicity assays, 2000 cells/well were plated in 384-well plates. Twenty four hours after plating, cells were treated with inhibitors at the indicated compound concentrations. On Day 3 (72 hours), cells were lysed with CellTiter-Glo® Luminescent Cell Viability Assay reagent (Promega) and luminescence was read using the EnVision Multi-plate reader. To calculate IC50, a dose-response curve is generated using a nonlinear regression model with a sigmoidal dose response. The formula of surviving rate is shown below. IC50 values were automatically generated by GraphPad Prism 8.0. See FIG. 1A and FIG. 1B and Tables 3 and 4.

WDR5 = WDR5 (Homo sapiens, UniProt P61964); assay: WDR5 TR-FRET Assay; assay type: binding; settings: 5 nM WDR5 protein, 10 nM peptide, read-out: IC50 (MLL1-WDR5 PPI inhibitory activity)
Description: WDR5 TR-FRET Assay Procedure: Stock compounds were transferred to the assay plate by Echo Liquid Handler. Reactions were performed in the assay buffer (1×PBS, 300 mM NaCl, 0.5 mM TCEP, 0.1% CHAPS) containing 5 nM WDR5 protein, 10 nM peptide (Ac-ARTEVHLRKS-[Ahx-Ahx][C]-Alexa Fluor 488-NH2) and 0.25 nM Tb-anti His antibody (Tb-Ab) in 384-well white plate (PerkinElmer) with a final volume of 20 μl. Compounds were incubated with WDR5 protein for 30 min at room temperature. Plates were covered, protected from light and incubated for 60 min. at room temperature after adding the peptide and Tb-Ab. EnVision Multimode Plate Reader (PerkinElmer) was used for the TR-FRET assay with excitation wavelength at 340 nm and emission wavelength at 495 and 520 nm. The ratio of the 520/495 nm wavelengths were used to assess the degree of the FRET signal. IC50 was calculated by fitting the inhibition data using XLfit software to sigmoidal dose-response model.

[1] = Compound formulation stability assay; assay type: physicochemical; settings: 10 mg/mL in 10% DMSO/10% solutol HS 15/80% water, 2-8° C.
Description: Compound formulation stability assay: Test articles were formulated in 10% DMSO/10% solutol HS 15/80% water and stored at 4° C. Formulated compounds were analyzed by a HPLC-UV method for actual concentrations and % remaining on Day 1, 4 and 7 after formulation to determine the stability of the formulated test article. The HPLC system was equipped with Shimadzu LC-20 high-performance liquid chromatograph, SIL-20AC auto sampler, LC-20AB pump and SPD-M20A detector. A Waters XBridge C18 (4.6*100 mm) column was applied for the separation. […]

Mouse PK (oral) = assay type: in vivo, C57/B16 mice; settings: for Cmax: plasma; for AUC(0-t) / half-life: C57/B16, plasma
Description: Mouse PK: Animals were dosed with a single intravenous bolus or oral gavage administration in naïve C57/B16 mice (Beijing Vital River Laboratory Animal Co., LTD). Blood samples were collected at the respective sampling time points. The quantification of compound concentrations in mouse or rat plasma was quantified using LC-MS/MS method. Plasma concentration versus time data was analyzed by non-compartmental mode approaches using the WinNonlin software program (version 6.3 or above, Pharsight). Pharmacokinetic parameters, including C0 (initial concentration after drug administration), […], Vdss (volume of distribution), Cmax (maximum peak concentration of the drug), Tmax (time required to reach Cmax) T1/2 (time required for drug concentration to decrease by 50% after administration), AUC0-last (area under the concentration-time curve from dosing time t=0 to the time of the last measured concentration), AUC0-inf (total drug exposure across time), MRT0-last (mean residence time from dosing time t=0 to the time of the last measured concentration), MRT0-inf f (mean residence time of total drug exposure), bioavailability (%) (the percentage (or the fraction F) of an administered drug dose that reaches the systemic circulation) for IV and PO groups were calculated. See Table 7 and FIGS. 6A, 6B, 6C and 6D.

Liver S9 stability assay [2] = assay type: in vitro ADME, human
Description: (§1) Liver S9 stability assay: Test compounds (1 μM) and positive control were incubated with 5 mM GSH and liver S9 (1 mg protein/ml) from multiple species (including human, monkey, dog, rat and mouse) at 37° C. at 0, 10, 30, and 60 minutes in duplicate. After adding the stop solution, 100 μL of supernatant were analyzed by LC-MS/MS. The % remaining of test compound, T1/2 (min), and CLint (μL/min/mg) were calculated and were reported.

Liver S9 stability assay [3] = assay type: in vitro ADME, rat
Description: as §1

Liver S9 stability assay [4] = assay type: in vitro ADME, dog
Description: as §1

Liver S9 stability assay [5] = assay type: in vitro ADME, mouse
Description: as §1

[6] = WBS (whole blood stability) assay; assay type: in vitro ADME; settings: for % Remaining after 60 min incubation: 2 μM, 37° C.
Description: WBS (whole blood stability) assay: The blood samples were collected freshly from multiple species including human, monkey, dog, rat and mouse. 2 μM of test compound and positive control were incubated with the whole blood at 37° C. at 0, 10, 30, 60, and 120 minutes in duplicate. After adding the stop solution, 200 μL of supernatant were analyzed by LC-MS/MS. The % remaining of test compound and T1/2 (min) were calculated and reported.

## C[C@H]1CN(c2cc(F)c(-c3cnc(N4CCOCC4)nc3)cc2Nc2ncnc(Cl)c2N)CCN1C [DDO-2213_020, (S)-6-chloro-N4-(2-(3,4-dimethylpiperazin-1-yl)-4-fluoro-5-(2-morpholinopyrimidin-5-yl)phenyl)pyrimidine-4,5-diamine]
MV 411 cells
  pIC50: 5.24
WDR5
  pIC50: 8.12
[1]; Day 0
  Accuracy % (Day 0): 89.8%
  Formulation Appearance (Day 0): clear solution
  Remaining % (Day 0): 100%
[1]; Day 1
  Accuracy % (Day 1): 91.6%
  Formulation Appearance (Day 1): clear solution
  Remaining % (Day 1): 102%
[1]; Day 4
  Accuracy % (Day 4): 92.0%
  Formulation Appearance (Day 4): clear solution
  Remaining % (Day 4): 100%
[1]; Day 7
  Accuracy % (Day 7): 95.5%
  Formulation Appearance (Day 7): clear solution
  Remaining % (Day 7): 104%
Mouse PK (oral); 10 mpk
  F: 61.5%
Mouse PK (oral); 30 mpk
  F: 107.0%
Mouse PK (oral); C57/B16, 10 mg/kg, 10 mpk
  Cmax: 1.67 µM
Mouse PK (oral); C57/B16, 30 mg/kg, 30 mpk
  Cmax: 5.47 µM
Mouse PK (oral); 10 mg/kg, 10 mpk
  AUC(0-t): 7.1 µM·h
  half-life: 3.3 h
Mouse PK (oral); 30 mg/kg, 30 mpk
  AUC(0-t): 37 µM·h
  half-life: 2.7 h
Liver S9 stability assay [2]; Human liver S9
  half-life at 1 μM: > 2.42 h
  microsomal CLint at 1 μM: < 4.8 µL/min/mg
Liver S9 stability assay [2]; Human liver S9, 1 μM, 5 mM GSH, 37° C.
  % Remaining after 60 min incubation: 92.1%
Liver S9 stability assay [3]; Rat liver S9
  half-life at 1 μM: > 2.42 h
  microsomal CLint at 1 μM: < 4.8 µL/min/mg
Liver S9 stability assay [3]; Rat liver S9, 1 μM, 5 mM GSH, 37° C.
  % Remaining after 60 min incubation: 88.8%
Liver S9 stability assay [4]; Dog liver S9
  half-life at 1 μM: > 2.42 h
  microsomal CLint at 1 μM: < 4.8 µL/min/mg
Liver S9 stability assay [4]; Dog liver S9, 1 μM, 5 mM GSH, 37° C.
  % Remaining after 60 min incubation: 78%
Liver S9 stability assay [5]; Mouse liver S9
  half-life at 1 μM: > 2.42 h
  microsomal CLint at 1 μM: < 4.8 µL/min/mg
Liver S9 stability assay [5]; Mouse liver S9, 1 μM, 5 mM GSH, 37° C.
  % Remaining after 60 min incubation: 93.4%
[6]; Dog whole blood
  half-life at 2 μM: > 2.41 h
  % Remaining after 60 min incubation: 101%
[6]; Human whole blood
  half-life at 2 μM: 5 h
  % Remaining after 60 min incubation: 103%
[6]; Mouse whole blood
  half-life at 2 μM: > 2.41 h
  % Remaining after 60 min incubation: 104%
[6]; Rat whole blood
  half-life at 2 μM: > 2.41 h
  % Remaining after 60 min incubation: 1%
